Entries after “also recorded” stand apart in the source; their conditions may differ.
How the values were obtained:
[1] = system: osteoclasts differentiated from Raw 264.7 cells, integrin αv siRNA treated; test: Osteoclast death after integrin αv siRNA; assay type: cell-based, mouse; details: 16 hours
Procedure: FIG. 11 depicts a graph showing PIIBNP-induced osteoclast death. siRNA specifically targeted to integrin αv was purchased from San Cruz (San Cruz, Calif.). Raw 264.7 cells were differentiated into osteoclasts by treatment with 100 nM of s-RANKL. The integrin αv expression in the […] were suppressed by treatment of the cells with siRNA. Integrin αv suppressed osteoblasts were incubated with recombinant GST, PIIBNP or mPIIBNP for 16 hours. Cell viability was assayed by a trypan blue exclusion test as described in FIG. 3.

HUVEC cells [2] = test: Tube formation assay; assay type: cell-based, human
Procedure: Tube Formation Assay. The tube formation assay using HUVEC cells was performed as described with some modification. Briefly, a suspension of 7.5×10^4 cells/well in complete medium was seeded into a Matrigel-coated 24-well plate in the presence of recombinant PIIBNP or GST (0-10 μM). The formation of tubes was evaluated using light microscopy and quantification was performed using a Q Capture Pro imaging software. Branch points per field were counted from three fields for each treatment.

HUVEC cells [3] = test: HUVEC cell death; assay type: cell-based, human
Procedure: FIG. 6 depicts photographs and graphs showing that PIIBNP inhibits angiogenesis. […] Quantification of tube formation was calculated based on branch points per field of view (FIG. 6C) for each treatment ranging from 0.1 μM to 10 μM of PIIBNP. […] GST (▴) and PIIANP (●) had no effect on the cells.
As a second test for angiogenesis, we tested the ability of PIIBNP to inhibit outgrowth of endogenous endothelial cells from freshly isolated rat aorta. […] In order to determine whether PIIBNP caused endothelial cell death, the number of HUVEC cells present after incubation with PIIBNP was determined (FIGS. 6E and 8). Tube formation was inhibited by 50% with 0.1 μM PIIBNP, with no cell death. […] Consequently, PIIBNP can inhibit angiogenesis in a cell line and in endogenous endothelial cells mediated by integrins αVβ3 and αVβ5.

Ch-1 cells [4] = test: Detection of cell death in Ch-1 cells; assay type: cell-based, human; details: 0.8 μM
Procedure: (§1) Cell Culture. Human Chondrosarcoma cell line (Ch-1) was isolated from a portion of chondrosarcoma tumor. The Ch-1 cell line was maintained in RPMI-1640 supplemented with 10% FBS and at 37° C. in a humidified, 5% CO2 atmosphere. Human chondrocytes were obtained from Dr. Davis Adkisson (ISTO Technologies, St. Louis) or isolated from macroscopically intact tissue obtained from total joint arthroplasty as described (Bassleer et al., 1998). HeLa 229 cells and MDA-MB 231 cell lines were provided by Dr. Kathy Weilbaecher (Washington University) and were cultured in RPMI medium supplemented with 10% FBS. HUVEC cells were a gift from Dr. William Frazier (Washington University) and were cultured in M199 Earle's medium with 10 units/ml of penicillin, 5 μg/ml streptomycin and 0.25 μg/ml Fungizone supplemented with 10% FBS, 0.1 mg/ml L-glutamine, 25 mM Hepes, 16 units/ml of heparin (Sigma) and 0.1 mg/ml endothelial cell mitogen (Biochemical Technologies).
Detection of Cell Death. Cells were cultured to confluence in a 24-well plate pre-coated with type I collagen, fibronectin (Sigma), and ECM Matrigel (Becton Dickinson). Proteins in serum-free medium were added to the cells. Cells were monitored by light microscopy and images were digitally photographed using a Q capture Retiga 2000R camera. Quantification of cells remaining in the well was performed by washing with PBS for three times, fixing with 4% paraformaldehyde. The cells per field (×400) were counted for three field per well (3 wells per measurement). The mean number and standard deviation (SD) were calculated.

[5] = system: normal human articular chondrocytes; test: Cell survival assay in normal human articular chondrocytes; assay type: cell-based; details: high-density monolayers
Procedure: as §1
Detection of Cell Death. […] Cells were monitored by light microscopy and images were digitally photographed using a Q capture Retiga 2000R camera. Quantification of cells remaining in the well was performed by washing with PBS for three times, fixing with 4% paraformaldehyde. The cells per field (×400) were counted for three field per well (3 wells per measurement). The mean number and standard deviation (SD) were calculated.

rings of rat aorta = test: Aortic ring formation assay
Procedure: FIG. 8 depicts a graph and photograph showing rat aortic ring formation. Angiogenesis was assayed by culturing rings of rat aorta in three-dimensional collagen gel. The culture was performed at 37° C. in a humidified environment for a week in the presence FGF and mPIIBNP or PIIBNP (0.1 to 3 mM). The microvessel outgrowth was examined and visualized every second day with an Olympus microscope. The pictures were taken before the measurement of the microvessels. (FIG. 8A) The length of microvessels was measured and total length for each measurement was added (FIG. 8B). PIIBNP inhibited aortic ring formation, with an IC50 of less than 0.1 μM.
Aortic Ring Formation Assay. Angiogenesis was assayed by culturing rings of rat aorta in three-dimensional collagen gels as reported. The cultures were kept at 37° C. in a humidified environment for a week in the presence of FGF and GST or PIIBNP (0.1-10 μM). The microvessel outgrowth was examined every second day with an Olympus microscope. The length of microvessels was measured and total length for each measurement was added.

β1, α4, and α5 integrin = test: Cell surface labeling and GST pull-down with immunoblotting (other integrins); assay type: binding, human; details: b23: β1 only; b113: β1, α4 and α5
Procedure: Immunoblotting. Western blotting was performed as described (7). Blots were probed with the following primary antibodies: rabbit anti αV, α2, α3, α5, β1, β3, β5 integrin and goat anti actin (Saint Cruz), chicken anti PIIBNP antiserum, and mouse anti exon 2 antiserum.
Cell Surface labeling and GST Pull-down Assay. Ch-1 cells were incubated with EZ-link Sulfo-NHS-Biotin reagent for 30 mins. according to the product instruction (Sigma). After 3 washes with 0.1 M glycine in PBS, the cells were lysed with a lysis buffer described above. The lysate was incubated with glutathione derivatized agarose beads previously bound with GST, PIIANP, PIIBNP or mPIIBNP for 1 hr. at RT. […] The membrane was washed and incubated with antibodies and then incubated with a secondary antibody coupled to horseradish peroxidase. The antibody complex was visualized by enhanced chemiluminescence.

Ch-1 cells [6] = test: Migration of Ch-1 cells; assay type: cell-based, human; details: data not shown

PIIBNP: Recombinant human Type IIB procollagen NH2-propeptide (exons 3-8, lacking exon 2), expressed as GST fusion protein
PIIBNP-induced osteoclast death after integrin αv siRNA compared with control siRNA [1]: significantly reduced
tube formation inhibited (HUVEC cells [2]; 0.1 μM): 50%
inhibition of tube formation (HUVEC cells [2]; Matrigel-coated plates, 0-10 μM): able to inhibit the formation of tubes in a dose-dependent manner
HUVEC cell death (HUVEC cells [3]; 0.1 μM): no cell death
HUVEC cell death (HUVEC cells [3]; 60 hrs, 37° C., higher concentrations): cell death was induced; also recorded: caused cell death in a concentration-dependent manner
cell survival (Ch-1 cells [4]): 20-30%
induction of cell death in Ch-1 cells (Ch-1 cells [4]; serum free medium, 24 hrs, type I collagen, fibronectin or Matrigel coated plates): resulted in cell death in a concentration and time-dependent manner; also recorded: induced cell death
induction of cell death in normal chondrocytes [5]: did not induce cell death
inhibition of endothelial outgrowth from rat aorta (rings of rat aorta; freshly isolated rat aorta): able to inhibit endothelial outgrowth in a concentration dependent manner
IC50 (rings of rat aorta; three-dimensional collagen gel, FGF, a week, read-out: IC50 of inhibition of aortic ring formation): < 100 nM
reaction of integrin antibodies with material pulled out by PIIBNP (β1, α4, and α5 integrin): did not react
inhibition of migration of Ch-1 cells (Ch-1 cells [6]): can inhibit migration

Source: patent US7851436B2, “Inhibition of migration and induction of cell death by the type II collagen amino propeptides” (Washington University, priority 2007, dated 2010)
